Source: publication PMC5913971, “A Novel Piperazine-Based Drug Lead for Cryptosporidiosis from the Medicines for Malaria Venture Open-Access Malaria Box” (Antimicrobial Agents and Chemotherapy, 2018)
Converted amounts (≈) assume the structure as drawn.

Experiments:
C. parvum Iowa isolate [1] = assay: NOD SCID gamma (NSG) mouse model of chronic cryptosporidiosis, fecal qPCR; format: in vivo, NOD SCID gamma mice
Experimental: All NOD SCID gamma mouse studies were performed in compliance with animal care guidelines and were approved by the University of Vermont Institutional Animal Care and Use Committee. NOD SCID gamma mice with normal flora (NOD.Cg-Prkdc^scid Il2rg^tm1Wjl/SzJ) ([38]) were purchased from The Jackson Laboratory (Bar Harbor, ME, USA) and were housed for at least a week for acclimatization. At the age of 4 to 5 weeks, mice were infected with 10^5 C. parvum Iowa isolate oocysts. Fecal oocyst shedding is detected 6 days after infection using a quantitative PCR (qPCR assay), so treatment was started on day 7 after infection. Mice (4 per experimental group) were treated either orally (p.o.) with MMV665917 at 30 or 60 mg/kg BID, intraperitoneally (i.p.) with MMV665917 at 60 mg/kg BID, or p.o. with 1,000 mg/kg paromomycin BID. MMV665917 was suspended in DMSO, sonicated three times, for 30 s each time, to obtain a fine suspension, aliquoted, and stored at −80°C for <10 days. On the day of treatment, aliquots of MMV665917 diluted in DMSO were thawed, mixed well using a vortexer, diluted with 1% HPMC, sonicated as before (three times for 30 s each time), mixed well, and given to mice either p.o. or by i.p. injection. A final concentration of 5% DMSO was used in 100 μl of 1% HPMC per dose. For the additional Malaria Box compounds and compound variants tested, the doses were prepared in the same way, and the specific dosages tested are given in Table S3 in the supplemental material. Mice were treated for either 4 or 7 days, allowed to recover for a week, and then sacrificed. Oocyst shedding in feces was monitored throughout by qPCR, including time points while on treatment and while monitoring for relapsed infection following completion of treatment in Fig. 2A.

[2] = set-up: method as in PMID 27467575; conditions: pH 7.4; cited from earlier work
hERG = test system: hERG; set-up: method as in PMID 27467575; conditions: at 11 μM; cited from earlier work
C. parvum Iowa isolate [3] = assay: Immunofluorescence assay for C. parvum growth inhibition in HCT-8 cells; format: cell-based, Cryptosporidium parvum; conditions: Cryptosporidium parvum, inside HCT-8 cells, 48 h incubation
Experimental: Inhibition of C. parvum growth was measured as described previously ([20]). Oocysts were excysted by treatment with 10 mM hydrochloric acid (10 min at 37°C), followed by exposure to 2 mM sodium taurocholate (Sigma-Aldrich) in PBS for 10 min at 16°C. Excysted oocysts were then added to >95% confluent HCT-8 cell monolayers in 384-well plates at a concentration of 5,500 Iowa isolate oocysts per well. For C. parvum field isolates, the inoculum required to yield an infection level similar to that produced by 5,500 Iowa isolate oocysts per well was determined and was used for subsequent assays of parasite inhibition. Compounds were added just before or 3 h after infection, and assay plates were incubated for 48 h postinfection at 37°C under 5% CO2. Wells were then washed three times with PBS containing 111 mM D-galactose, fixed with 4% paraformaldehyde in PBS for 15 min at room temperature, permeabilized with 0.25% Triton X-100 for 10 min at 37°C, washed three times with PBS with 0.1% Tween 20, and blocked with 4% bovine serum albumin (BSA) in PBS for 2 h at 37°C or 4°C overnight. Parasitophorous vacuoles were stained with 1.33 μg/ml of fluorescein-labeled Vicia villosa lectin (Vector Laboratories) diluted in 1% BSA in PBS with 0.1% Tween 20 for 1 h at 37°C, followed by the addition of Hoechst 33258 (AnaSpec) at a final concentration of 0.09 mM diluted in water for another 15 min at 37°C. Wells were then washed five times with PBS containing 0.1% Tween 20. A Nikon Eclipse TE2000 epifluorescence microscope with an automated stage was programmed using NIS-Elements Advanced Research software (Nikon, USA) to focus on the center of each well and take a 3-by-3 composite image using an EXi Blue fluorescence microscopy camera (QImaging, Canada) with a 20× objective (numerical aperture, 0.45). Nucleus and parasite images were exported separately as .tif files and were analyzed using macros developed on the ImageJ platform (National Institutes of Health) ([20]). The only modification from the published macro used to count parasites was that the lower size threshold for parasites was decreased from 16.5 to 4 pixels (1 pixel = 0.65 μm). Graphs were plotted, and half-maximal effective concentration (EC50) and 90% effective concentration (EC90) values were calculated using GraphPad Prism software, version 6.01. For every C. parvum field isolate experiment, a dose-response experiment against the C. parvum Iowa isolate was performed simultaneously as a reference.

[4] = set-up: method as in PMID 27467575; conditions: single oral dose of 55 mg/kg; cited from earlier work
zebrafish = test system: zebrafish; set-up: method as in PMID 27467575; conditions: cited from earlier work
HCT-8 cells = assay: Host cell toxicity assay (CellTiter AQueous); format: cell-based, Human
Experimental: Host cell toxicity was measured as described previously ([20]). HCT-8 cells were grown to >95% confluence in 384-well plates. Increasing concentrations of compounds were added, and assay plates were incubated at 37°C under 5% CO2 for 48 h. The corner wells of each plate were trypsinized to remove cells and were used as blanks for measuring absorbance at 490 nm. Cell proliferation was measured using the CellTiter AQueous assay kit (Promega, USA) according to the manufacturer's instructions and was expressed as the percentage of proliferation with the vehicle control (DMSO). GraphPad Prism software, version 6.01, was used to plot graphs and calculate the concentration that inhibits 50% of host cell proliferation relative to that with the DMSO control (50% toxic concentration [TC50]). A selectivity index (SI) was calculated as the ratio of the […].

[5] = test system: five mammalian cell lines; assay: Toxicity profiling in mammalian cell lines; conditions: based on previously reported toxicity profiling

O=C(Nc1ccc(Cl)cc1)N1CCN(c2ccc3nncn3n2)CC1 [MMV665917, Clc1ccc(NC(=O)N2CCN(CC2)c3ccc4nncn4n3)cc1]
reduction of oocyst shedding (C. parvum Iowa isolate [1]; 30 mg/kg orally twice daily, 7 days, from day 7 after infection): > 90% | efficacy, oral versus intraperitoneal dosing (C. parvum Iowa isolate [1]; 60 mg/kg BID p.o. or i.p., Fig. 4A): equally efficacious regardless of the route of administration | relapse after cessation of treatment (C. parvum Iowa isolate [1]; MMV665917 30 mg/kg orally twice daily, 7 days): relapsed | outcome after cessation of treatment (C. parvum Iowa isolate [1]; MMV665917 60 mg/kg orally twice daily, 7 days): apparently cured | NSG efficacy (C. parvum Iowa isolate [1]; dose 30 mg/kg, interval 12 h, duration 4 days): efficacious | kinetic solubility [2]: 18 µM (≈ 6.44 µg/mL) | hERG inhibition (hERG): 58% | EC50 (C. parvum Iowa isolate [3]; Fig. 1, read-out: EC50, anti-C. parvum dose response): 2.1 µM | EC90 (C. parvum Iowa isolate [3]; Fig. 1B, read-out: EC90, anti-C. parvum dose response): 5.1 µM | plasma MMV665917 levels over time [4]: continued to increase for 9 h | toxicity to zebrafish (zebrafish): not toxic | TC50, host HCT-8 cell toxicity (HCT-8 cells; 48 h, CellTiter AQueous): > 100 µM | selectivity index (SI) (HCT-8 cells; HCT-8 TC50 versus C. parvum EC50): > 47 | toxic effect on host HCT-8 cell proliferation (HCT-8 cells; concentrations as high as 100 μM): no toxic effect | selectivity index (SI) for C. parvum over five mammalian cell lines [5]: > 20
